What all share (assay): spectrophotometric esterase kinetics, active-site titrated enzyme
What all share (details): wild-type values collected contemporaneously, also reported in Teese et al. [32]

One series deals with T1, 001b (CCE-001b).
T1 construct: gene CCE001b; untagged, baculovirus expressed in Sf9 cells; titrated active sites
Format: biochemical, Helicoverpa armigera.

The test system of a further series is T2, 001f (CCE-001f).
T2 construct: gene CCE001f; untagged, baculovirus expressed in Sf9 cells; titrated active sites
Format: biochemical, Helicoverpa armigera.

For a further series, the system named is CC(=O)Oc1cccc2ccccc12. In kind it is biochemical, Lucilia cuprina. The text has this:
spectrophotometric esterase kinetics, active-site titrated enzyme on E3

Text for 001b (CCE-001b): spectrophotometric esterase kinetics, active-site titrated enzyme on 001b (CCE-001b)
Text for 001f (CCE-001f): spectrophotometric esterase kinetics, active-site titrated enzyme on 001f (CCE-001f)

Regarding `CC(=O)Oc1cccc2ccccc12` [1-naphthyl acetate], the Km with 001b (CCE-001b) was 199 µM; in the series with 001f (CCE-001f), 4 µM.

As to E3 (Lucilia cuprina), in the series on CC(=O)Oc1cccc2ccccc12, the Km was 88 (10) µM and the kcat was 1399 (70) sec^-1.

The record behind these values is PMC3812244, “Organophosphate and Pyrethroid Hydrolase Activities of Mutant Esterases from the Cotton Bollworm Helicoverpa armigera” (PLoS ONE, 2013).
